Key:
[1] = target: T1, recombinant human VDAC1 (hVDAC1) (Homo sapiens, UniProt P21796); experiment: Microscale Thermophoresis (MST) binding assay with labeled VDAC1; conditions: for Kd: MST, 5 nM labeled VDAC1, 25° C., 12-point dilution 100-0.04 µM, read-out: VDAC1 affinity (KD)
T1 construct: His (N); GST (N); purchased LSBio LS-G25810; host or cells: E. coli
From the text: MicroScale Thermophoresis (MST) is a biophysical technique that measures the strength of interaction (affinity) between two molecules by detecting variations in fluorescence signal as a result of an IR-laser induced temperature change. The range of the variation in the fluorescence signal correlates with the binding of a ligand to a fluorescent target. By that it allows for quantitative analysis of molecular interactions in solution on the microliter scale with high sensitivity.The MST signal is composed of two major factors: The TRIC effect and the thermophoresis. TRIC stands for Temperature-Related Intensity-Change and describes how the fluorescence intensity of a fluorophore depends on the local temperature of the solution. For the vast majority of fluorophores, the fluorescence intensity decreases with increasing temperature. Most importantly, however, the extent of the temperature dependence is strongly related to the chemical environment of the fluorophore. This environment is sensitively affected by the binding of a ligand molecule to the fluorescently labeled target molecule (via conformational changes or ligand-dye proximity). The second component of the MST-signal, the thermophoresis describes the movement of molecules along temperature gradients which results in a quantifiable change of the local concentration of the target molecules. As these target molecules are fluorescently labeled in MST, such concentration changes can be monitored simply by fluorescence measurements. This directed movement of molecules depends on their molecular size, charge, and hydration shell. Binding of a ligand to a target molecule leads to the change of at least one of these parameters and therefore to an altered thermophoretic movement of the target-ligand complex compared to the single molecules alone. In sum, both TRIC and thermophoresis contribute to the overall MST-signal, which is detected by fluorescence measurement. Due to this robust physical principle and direct monitoring, MST can be used for determining the affinity and binding strength of almost any kind of molecular interaction or modification of small molecules, proteins, peptides, DNA, sugars, or molecular complexes.
Reconstituted N-terminal His-GST tagged E. coli recombinant human VDAC1 (hVDAC1) was buffer exchanged into protein labeling buffer due to the primary amine of the Tris lyophilization buffer interferes with NHS-based labeling. The labeling buffer was kept as close to the storage buffer of the target protein as given on the protein data sheet (LSBio LS-G25810). Tris was replaced by HEPES. PLURONIC® F-127 was added to 0.05% in order to enhance protein recovery in the final dye removal step. The total volume of the labeling batch was 100 µL. The labeling time was 30 minutes. The labeling reaction was performed at room temperature. Any unbound or unreacted dye was separated from the labeled protein on a gravity-flow gel-filtration column (GE Healthcare, PD Minitrap G-25, GE28-9180-07). The final target buffer was kept as close to the original protein storage buffer as possible. It contained Tris again instead of HEPES.
The first step of the technical assay establishment was a so-called “noise test”. In this test, the intrinsic MST-noise of the labeled target protein was tested. Subsequently, a reference compound or positive control (CAS number: 2086257-77-2) was characterized to confirm previously reported VDAC1 binding (Zhang et al (2019)). Preserving Insulin Secretion in Diabetes by Inhibiting VDAC1 Overexpression and Surface Translocation in β Cells″. Cell Metabolism 29, 64-77.). In short, serial dilutions of the compound having CAS number: 2086257-77-2 was prepared in a way to match the final buffer conditions in the reaction mix (assay buffer). The highest concentration of ligand was 10.0 mM and the lowest 4.88 µM. A total of 12 dilution steps were prepared. […]

[2] = system: islets of human T2D organ donors; conditions: acute exposure of the T2D islets; cited from earlier work

T1 sequence (P21796 whole entry): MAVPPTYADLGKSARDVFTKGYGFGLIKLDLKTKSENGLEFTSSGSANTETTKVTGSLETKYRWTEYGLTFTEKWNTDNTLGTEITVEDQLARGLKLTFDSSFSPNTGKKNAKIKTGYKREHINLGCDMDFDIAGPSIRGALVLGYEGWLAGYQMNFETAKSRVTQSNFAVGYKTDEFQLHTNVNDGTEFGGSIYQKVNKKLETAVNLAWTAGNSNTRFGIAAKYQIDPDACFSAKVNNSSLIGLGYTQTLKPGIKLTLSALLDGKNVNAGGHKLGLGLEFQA

Kd [1] [µM]	Structure (SMILES)	also measured
14	O=C(CC(CO)N1CCN(c2ccc(OC(F)(F)F)cc2)CC1)Nc1ccc(Cl)cc1 (centres unmarked) [CAS: 2086257-77-2, N-(4-chlorophenyl)-4-hydroxy-3-{4-[4-(trifluoromethoxy)phenyl]piperazin-1-yl}butanamide, reference compound]	glucose-stimulated insulin secretion (GSIS) [2]: restored GSIS
12	O=C(NCC(CO)N1CCN(c2ccc(OC(F)(F)F)cc2)CC1)c1ccc(Cl)cc1 (centres unmarked) [Example 1, 4-chloro-N-(3-hydroxy-2-{4-[4-(trifluoromethoxy)phenyl]piperazin-1-yl}propyl)benzamide]	
8.4	O=C(CC(CCO)N1CCN(c2ccc(OC(F)(F)F)cc2)CC1)Nc1ccc(Cl)cc1 (centres unmarked) [Example 2, N-(4-chlorophenyl)-5-hydroxy-3-{4-[4-(trifluoromethoxy)phenyl]piperazin-1-yl}pentanamide]	
5.2	O=C(CC(CO)N1CCCN(c2ccc(OC(F)(F)F)cc2)CC1)Nc1ccc(Cl)cc1 (centres unmarked) [Example 3, N-(4-chlorophenyl)-4-hydroxy-3-{4-[4-(trifluoromethoxy)phenyl]-1,4-diazepan-1-yl}butanamide]	
5.1	O=C(CC(CO)N1CC2=C(CN(c3ccc(OC(F)(F)F)cc3)C2)C1)Nc1ccc(Cl)cc1 (centres unmarked) [Example 4, N-(4-chlorophenyl)-4-hydroxy-3-{5-[4-(trifluoromethoxy)phenyl]-1H,2H,3H,4H,5H,6H-pyrrolo[3,4-c]pyrrol-2-yl}butanamide]	S/N of MST plot ([1]; MST plot of FIG. 1): 20.1; dFnorm of MST plot ([1]; MST plot of FIG. 1): 23.9
3.8	O=C(CC(CO)N1CCOC2(CCN(c3ccc(OC(F)(F)F)cc3)C2)C1)Nc1ccc(Cl)cc1 (centres unmarked) [Example 5, N-(4-chlorophenyl)-4-hydroxy-3-{2-[4-(trifluoromethoxy)phenyl]-6-oxa-2,9-diazaspiro[4.5]decan-9-yl}butanamide]	
9.8	O=C(CC(CO)N1CCCC(C2CN(c3ccc(OC(F)(F)F)cc3)C2)C1)Nc1ccc(Cl)cc1 (centres unmarked) [Example 6, N-(4-chlorophenyl)-4-hydroxy-3-(3-{1-[4-(trifluoromethoxy)phenyl]azetidin-3-yl}piperidin-1-yl)butanamide]	
13.1	O=C(CC(CO)N1CC2(CCN(c3ccc(OC(F)(F)F)cc3)C2)C1)Nc1ccc(Cl)cc1 (centres unmarked) [Example 7, N-(4-chlorophenyl)-4-hydroxy-3-{6-[4-(trifluoromethoxy)phenyl]-2,6-diazaspiro[3.4]octan-2-yl}butanamide]	
2.8	O=C(CC(CO)N1CCCC2C1CCN2c1ccc(OC(F)(F)F)cc1)Nc1ccc(Cl)cc1 (centres unmarked) [Example 8, N-(4-chlorophenyl)-4-hydroxy-3-{1-[4-(trifluoromethoxy)phenyl]-octahydro-1H-pyrrolo[3,2-b]pyridin-4-yl}butanamide]	
11.4	O=C(CC(CO)N1CC2CN(c3ccc(OC(F)(F)F)cc3)CC2C1)Nc1ccc(Cl)cc1 (centres unmarked) [Example 9, N-(4-chlorophenyl)-4-hydroxy-3-{5-[4-(trifluoromethoxy)phenyl]-octahydropyrrolo[3,4-c]pyrrol-2-yl}butanamide]	
1.9	O=C(CC(CO)N1CCCC2(CCCN(c3ccc(OC(F)(F)F)cc3)C2)C1)Nc1ccc(Cl)cc1 (centres unmarked) [Example 10, N-(4-chlorophenyl)-4-hydroxy-3-{8-[4-(trifluoromethoxy)phenyl]-2,8-diazaspiro[5.5]undecan-2-yl}butanamide]	
